Experimental data published in patent US9034866B2 (Genentech, Inc., priority 2012, dated 2015).
pIC50: −log10 of the molar value. Where two headings read alike, the source gives them in different places.

Legend:
[1] = system: REL-A (p65) nuclear translocation in HeLa cells; experiment: REL-A nuclear translocation assay (classical NF-kB signaling), high content imaging; type: cell-based; settings: compounds 4.5 hours, then 10 ng/mL TNF-α for 30 minutes, read-out: REL-A HeLa Transloc Assay (IC50)
Experimental: (§1) (2) A second set of cell assay are used to define the selectivity of NIK inhibitors toward inhibition of classical vs. non-classical NF-kB signaling and rely on quantification of the nuclear translocation of p52 (NF-kB2) and REL-A (p65) using high content cellular imaging. For the p52 (non-classical NF-kB signaling) nuclear translocation assay, HeLa cells are treated with different concentrations of compounds (0.2% DMSO final) in medium containing 10% fetal bovine serum and then stimulated with 100 ng/mL, of an anti-lymphotoxin beta receptor antibody (R&D Systems) for 5 hours. In the REL-A nuclear translocation assay, HeLa cells are incubated with compounds (0.2% DMSO final) for 4.5 hours in medium containing 10% fetal bovine serum before stimulating them with 10 ng/mL tumor necrosis factor (TNF)-α (R&D Systems) for 30 minutes. Cells are fixed with 4% paraformaldehyde, permeabilized by adding 0.1% Triton X-100 in phosphate buffered saline, and then are incubated with either 2 ug/mL anti-p52 antibody (Millipore) or 400 ng/mL anti-REL-A (p65) antibody (Santa Cruz Biotechnology). Finally, the cells are incubated with an Alexa488-labeled secondary antibody (Invitrogen) and DRAQ5 DNA stain (Biostatus). Imaging is carried out using an Opera reader (Perkin Elmer) and data are analyzed with the aid of Acapella software (Perkin Elmer). The p52 or REL-A translocation into the nucleus is quantified by the ratio of the nuclear to cytoplasmic signal intensity. […] The compounds in listed in Table 1 have the corresponding inhibitory value (IC50 in micromolar) for NIK p52 Translocation Assay as set forth in Table 2.
The compounds in listed in Table 1 has the corresponding inhibitory value (IC50 in micromolar) for NIK RelA Translocation Assay as set forth in Table 2.

[2] = system: p52 (NF-kB2) nuclear translocation in HeLa cells; experiment: p52 nuclear translocation assay (non-classical NF-kB signaling), high content imaging; type: cell-based; settings: 100 ng/mL anti-lymphotoxin beta receptor antibody for 5 hours, read-out: p52 HeLa Transloc Assay (IC50)
Experimental: as §1

[3] = biological target: nuclear factor-kappa B (NF-kB)-inducing kinase (NIK) (Homo sapiens (Human), UniProt Q99558); experiment: NIK Enzyme Inhibition Assay (Transcreener ADP fluorescence polarization); type: biochemical; settings: read-out: NIK ADP-FP (Ki uM)
Sequence of nuclear factor-kappa B (NF-kB)-inducing kinase (NIK) (Q99558 whole entry): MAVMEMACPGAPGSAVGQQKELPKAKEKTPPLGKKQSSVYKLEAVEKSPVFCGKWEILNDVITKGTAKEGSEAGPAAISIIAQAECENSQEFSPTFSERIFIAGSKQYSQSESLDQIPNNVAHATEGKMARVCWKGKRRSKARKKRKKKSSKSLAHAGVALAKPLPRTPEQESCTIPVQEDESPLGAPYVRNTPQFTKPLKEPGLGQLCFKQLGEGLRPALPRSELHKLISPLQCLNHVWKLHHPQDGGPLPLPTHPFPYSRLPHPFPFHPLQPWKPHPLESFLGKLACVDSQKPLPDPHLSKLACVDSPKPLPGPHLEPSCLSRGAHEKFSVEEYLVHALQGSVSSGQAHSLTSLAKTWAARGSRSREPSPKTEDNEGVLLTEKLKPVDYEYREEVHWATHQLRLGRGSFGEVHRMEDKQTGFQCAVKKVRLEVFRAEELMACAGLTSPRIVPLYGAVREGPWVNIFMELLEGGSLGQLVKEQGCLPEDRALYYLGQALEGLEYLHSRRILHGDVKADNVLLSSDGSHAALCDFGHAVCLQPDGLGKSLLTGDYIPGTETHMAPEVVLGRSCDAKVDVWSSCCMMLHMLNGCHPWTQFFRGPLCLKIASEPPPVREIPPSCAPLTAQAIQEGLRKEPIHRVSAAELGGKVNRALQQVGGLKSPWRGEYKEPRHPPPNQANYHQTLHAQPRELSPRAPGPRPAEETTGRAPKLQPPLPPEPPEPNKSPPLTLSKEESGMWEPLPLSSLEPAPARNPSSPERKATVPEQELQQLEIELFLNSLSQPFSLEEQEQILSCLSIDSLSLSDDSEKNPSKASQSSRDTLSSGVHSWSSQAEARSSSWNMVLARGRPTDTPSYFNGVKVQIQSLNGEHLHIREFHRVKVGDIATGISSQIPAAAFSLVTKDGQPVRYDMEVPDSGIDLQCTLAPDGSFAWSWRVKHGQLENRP
How it was run: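 Fluorescence-polarization ADP detection (tracer displacement, 633 nm excitation) read after EDTA/Brij quench. Reaction: 0.2-1 nM insect-cell-derived NIK, 10 uM ATP, HEPES pH 7.2 with MgCl2 and DTT, 1% DMSO, 1-3.5 h with compounds.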

[4] = purified NIK 0.2-1 nM, 10 uM ATP, Morrison's quadratic equation

| Structure (SMILES) | pIC50 ([1]; Homo sapiens, HeLa) | Ki [3, 4] [µM] | pIC50 ([2]; Homo sapiens, HeLa, 5 h) | also measured |
| --- | --- | --- | --- | --- |
| CC(C)(O)C#Cc1cc2c(cc1F)C1CC(C1)n1c-2nc(C(N)=O)c1C1(O)COC1 [Example 339, 9-fluoro-10-(3-hydroxy-3-methyl-but-1-ynyl)-3-(3-hydroxyoxetan-3-yl)-5,6,7,12-tetrahydro-5,7-methanobenzo[c]imi-dazo[1,2-a]azepine-2-carboxamide] | – | 0.007 | – | pIC50 ([1]; Homo sapiens): < 4.70; pIC50 ([2]; Homo sapiens): 5.59 |
| CN1CC[C@@](O)(C#Cc2ccc3c(c2)-c2nc(C(N)=O)c(C(F)(F)F)n2CCO3)C1=O | < 4.70 | 0.00072 | 6.35 | – |
| CC(C)(O)c1c(C(N)=O)nc2n1C1CC(C1)c1cc(F)c(C#CC3(O)CCCC3)cc1-2 [Example 324, 9-fluoro-10-[2-(1-hydroxycyclopentyl)ethy-nyl]-3-(1-hydroxy-1-methyl-ethyl)-5,6,7,12-tetrahydro-5,7-methanobenzo[c]imi-dazo[1,2-a]azepine-2-carboxamide] | – | – | – | pIC50 [1]: < 4.70; pIC50 [2]: 5.96; Ki [3]: 0.0089 µM |
| Cc1nc([C@](C)(O)C#Cc2cc3c(cc2F)C2CC(C2)c2c-3nc(C(N)=O)n2C)no1 | < 4.70 | 0.0005 | 6.08 | – |
| Cc1nc([C@](C)(O)C#Cc2cc3c(cc2F)C2CC(C2)n2c-3nc(C(N)=O)c2C(F)(F)F)no1 (racemic) | < 4.70 | 0.0072 | 5.64 | – |
| CNC(=O)c1c(C(N)=O)nc2n1CCOc1ccc(C#CC3(O)CCC3)cc1-2 | < 4.70 | 0.0022 | 6.14 | – |
| CC(C)(O)C#Cc1cc2c(cc1F)OCCn1c-2nc(C(N)=O)c1-c1nc(-c2cccnc2)n[nH]1 [Example 172] | < 4.70 | 0.0004 | 5.92 | – |
| Cc1cc([C@](C)(O)C#Cc2ccc3c(c2)-c2nc(C(N)=O)cn2CCO3)no1 [Example 8, 9-[(R)-3-Hydroxy-3-(5-methyl-isoxazol-3-yl)-but-1-ynyl]-4,5-dihydro-6-oxa-1,3a-diaza-benzo[e]azulene-2-carboxylic acid amide] | 4.70 | 0.001 | 6.17 | – |
| CN1CC[C@@](O)(C#Cc2cc3c(cc2F)C2CC(C2)n2c-3nc(C(N)=O)c2C2CC2)C1=O [Example 333, 3-cyclopropyl-9-fluoro-10-[2-[(3R)-3-hy-droxy-1-methyl-2-oxo-pyrrolidin-3-yl]ethynyl]-5,6,7,12-tetrahydro-5,7-meth-anobenzo[c]imidazo[1,2-a]azepine-2-carboxamide] | < 4.70 | – | 5.66 | – |
| CNC(=O)c1c(C(N)=O)nc2n1C1CC(C1)c1cc(F)c(C#CC3(O)CCC3)cc1-2 [Example 368, 9-fluoro-10-[2-(1-hydroxycyclobutyl)ethy-nyl]-N3-methyl-5,6,7,12-tetrahydro-5,7-methanobenzo[c]imidazo[1,2-a]azepine-2,3-dicarboxamide] | < 4.70 | – | 6.47 | – |
| CN1CC[C@@](O)(C#Cc2cc3c(cc2F)OCCn2c-3nc(C(N)=O)c2C2CC2)C1=O [Example 418, 9-fluoro-10-(3-hydroxy-3-methyl-but-1-ynyl)-3-[[2-methoxyethyl(methyl)amino]methyl]-5,6,7,12-tetrahydro-5,7-methanobenzo[c]imidazo[1,2-a]azepine-2-carboxamide] | < 4.70 | – | 6.29 | – |
| Cn1c(C(N)=O)nc2c1C1CC(C1)c1ccc(C#C[C@@](C)(O)c3ncccn3)cc1-2 [Example 427, 9-fluoro-10-(3-hydroxy-3-methyl-but-1-ynyl)-N3-methyl-5,6,7,12-tetrahydro-5,7-methanobenzo[c]imidazo[1,2-a]azepine-2,3-dicarboxamide] | < 4.70 | – | 6.34 | – |
| CN1CC[C@@](O)(C#Cc2ccc3c(c2)-c2nc(C(N)=O)sc2C(F)(F)CO3)C1=O [Example 406, 10-[(3R)-3-hydroxy-3-(5-methylisoxazol-3-yl)but-1-ynyl]-N3,N3-dimethyl-5,6,7,12-tetrahydro-5,7-methanobenzo[c]imidazo[1,2-a]azepine-2,3-dicarboxamide] | < 4.70 | – | 7.12 | – |
| CC(=O)N(Cc1c(C(N)=O)nc2n1C1CC(C1)c1cc(F)c(C#CC(C)(C)O)cc1-2)C(C)C [Example 371, 3-[[acetyl(isopropyl)amino]methyl]-9-fluoro-10-(3-hydroxy-3-methyl-but-1-ynyl)-5,6,7,12-tetrahydro-5,7-methano-benzo[c]imidazo[1,2-a]azepine-2-carboxamide] | < 4.70 | – | 5.72 | – |

Further lines, with some results ahead:

| pIC50 ([1]; Homo sapiens, HeLa) | Ki [3, 4] [µM] | Structure (SMILES) | pIC50 ([2]; Homo sapiens, HeLa, 5 h) | also measured |
| --- | --- | --- | --- | --- |
| 4.70 | 0.0003 | Cc1cc([C@](C)(O)C#Cc2cc3c(cc2F)OCCn2cc(C(N)=O)nc2-3)no1 [Example 6, 8-fluoro-9-[(R)-3-hydroxy-3-(5-methyl-isoxazol-3-yl)-but-1-ynyl]-4,5-dihydro-6-oxa-1,3a-diaza-benzo[e]azulene-2-car-boxylic acid amide] | 6.87 | – |
| < 4.70 | 0.00685 | CN1CC[C@@](O)(C#Cc2cc3c(cc2F)C2CC(C2)n2c-3nc(C(N)=O)c2C(C)(C)O)C1=O [Example 327, 9-fluoro-3-(1-hydroxy-1-methyl-ethyl)-10-[2-[(3R)-3-hydroxy-1-methyl-2-oxo-pyrrolidin-3-yl]ethynyl]-5,6,7,12-tet-rahydro-5,7-methanobenzo[c]imidazo[1,2-a]azepine-2-carboxamide] | 5.11 | – |
| < 4.70 | 0.026 | CC(C)(O)C#Cc1ccc2c(c1)-c1nc(C(N)=O)c(C(F)(F)F)n1C1CC2C1 (racemic) [Example 206] | 5.36 | – |
| 4.76 | 0.0021 | CNC(=O)c1c(C(N)=O)nc2n1C1CC(C1)c1ccc(C#C[C@@](C)(O)c3noc(C)n3)cc1-2 | 5.42 | – |
| < 4.70 | 0.0012 | CNC(=O)c1c(C(N)=O)nn2c1CCOc1ccc(C#C[C@]3(O)CCN(C)C3=O)cc1-2 (racemic) [Example 514] | 6.27 | – |
| 4.70 | 0.00016 | Cn1c(C(N)=O)nc2c1C1CC(C1)c1cc(F)c(C#C[C@@](C)(O)c3ncccn3)cc1-2 [Example 283, (R)-8-fluoro-9-(3-hydroxy-3-(pyrimidin-2-yl)but-1-yn-1-yl)-3-methyl-3,4,5,6-tetrahydro-4,6-methanobenzo[3,4]cyclo-hepta[1,2-d]imidazole-2-carboxamide] | 6.06 | – |
| 5.74 | 0.00061 | CNC(=O)c1c(C(N)=O)nc2n1C1CC(C1)c1ccc(C#C[C@@](C)(O)c3cc(C)on3)cc1-2 (racemic) | 5.89 | – |
| < 4.70 | 0.0077 | CC(C)(O)C#Cc1cc2c(cc1F)C1CC(C1)n1c-2nc(C(N)=O)c1C1CN(C(=O)OC(C)(C)C)C1 (racemic) | 5.74 | – |
| 4.70 | 0.0002 | Cc1cc([C@](C)(O)C#Cc2ccc3c(c2)-c2nc(C(N)=O)sc2CCO3)no1 [Example 7, 9-[(R)-3-hydroxy-3-(5-methyl-isoxazol-3-yl)-but-1-ynyl]-4,5-dihydro-6-oxa-3-thia-1-aza-benzo[e]azulene-2-carboxylic acid amide] | 7.40 | – |
| < 4.70 | 0.00012 | CNC(=O)c1c(C(N)=O)nc2n1C1CC(C1)c1cc(F)c(C#CC3(O)CCCC3)cc1-2 | 6.43 | – |
| 5.25 | 0.0057 | Cc1cc([C@](C)(O)C#Cc2cc3c(cc2F)C2CC(C2)n2c-3nc(C(N)=O)c2C(C)(C)O)no1 [Example 326] | 5.92 | – |
| < 4.70 | 0.0049 | Cc1cc([C@](C)(O)C#Cc2ccc3c(c2)-c2nc(C(N)=O)c(C(F)(F)F)n2CCO3)no1 (racemic) | 5.35 | – |
| 4.70 | 0.002 | Cn1nccc1Cn1c(C(N)=O)nc2c1C1CC(C1)c1cc(F)c(C#CC(C)(C)O)cc1-2 [Example 391] | 7.43 | – |
| 4.70 | 0.001 | Cc1nc([C@](C)(O)C#Cc2cc3c(cc2F)OCCc2sc(C(N)=O)nc2-3)no1 | 6.77 | – |
| 4.70 | – | Cc1cc([C@](C)(O)C#Cc2cc3c(cc2F)OCCc2sc(C(N)=O)nc2-3)no1 [Example 39] | 7.42 | – |
